Data taken from patent US7425577B2, “Lipase-colipase inhibitor” (Forskarpatent 1 SYD AB, priority 2003, dated 2008).
Where “and” joins values, the source holds several entries; their conditions need not be identical. Equal values may be shown once. Entries after “also recorded” stand apart in the source; their conditions may differ.

How the values were obtained:
lipase = molecular target: T1, lipase (Homo sapiens, UniProt P04118+P16233); assay: Inhibition of lipase activity in vitro assay, tributyrin or Intralipid as substrates (FIGS. 1A and 1B); type: biochemical; details: for Inhibition of lipase activity in vitro: tributyrin or intralipid as substrates
T1 sequence (P16233 17-465): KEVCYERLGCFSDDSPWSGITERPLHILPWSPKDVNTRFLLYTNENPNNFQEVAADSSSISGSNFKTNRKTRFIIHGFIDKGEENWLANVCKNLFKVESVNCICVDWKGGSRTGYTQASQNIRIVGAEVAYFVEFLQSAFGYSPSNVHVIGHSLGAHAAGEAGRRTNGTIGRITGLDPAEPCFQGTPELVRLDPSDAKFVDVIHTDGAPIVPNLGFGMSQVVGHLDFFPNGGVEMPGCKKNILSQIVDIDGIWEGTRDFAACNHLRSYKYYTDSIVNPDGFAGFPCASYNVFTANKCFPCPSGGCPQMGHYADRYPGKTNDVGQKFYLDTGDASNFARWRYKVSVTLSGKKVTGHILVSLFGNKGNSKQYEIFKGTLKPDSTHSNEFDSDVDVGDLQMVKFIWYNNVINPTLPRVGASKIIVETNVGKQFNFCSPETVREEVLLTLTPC
T1 sequence (P04118 23-112): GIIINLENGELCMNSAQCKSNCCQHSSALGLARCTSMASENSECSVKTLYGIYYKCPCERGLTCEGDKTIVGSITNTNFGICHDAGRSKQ

[1] = Serum PYY 3-36, leptin and ghrelin after 5 days of oral administration; type: in vivo, female Sprague-Dawley rats
Experimental: Blood was drawn in rats from the intra-orbital bullar plexus under anaesthesia and collected in ice-cold tubes. Serum was obtained by centrifugation at 3000 g for 15 min at 4° C. For acute effect of dimethylaminoethyl dodecyl ether on blood lipids, overnight-fasted rats were given 200 μl dimethylaminoethyl dodecyl ether plus 1 ml (200 mg) Intralipids orally through a gastric gavage and blood collected at 0, 30, 60, 120 and 180 min. Plasma triglycerides was determined with an Sigma diagnostics kit. Plasma fatty acids were measured by NEFAC kit (Wako chemicals GmbH, Neuss, Germany). Plasma PYY (3-36) and leptin were measured with the PYY Enzyme Immunossay kit and leptin Enzyme Immunossay (Phoenix Pharmaceuticals, USA)
Stat View program was used for statistics analysis. The data were analyzed using two-way ANOVA followed by post hoc tests for comparison of individual differences. Student's t-test was used for the analysis of triglycerides, PYY3-36, leptin and ghrelin data.

[2] = In vivo Intralipid feeding test: free fatty acids and triglycerides in blood serum; design: species or system Sprague-Dawley rats
Experimental: Sprague-Dawley rats weighing 200-220 g, stored in cages using a 12 hours of light/12 hours of darkness cycle were used. They had free admittance to food and water prior to the test. The day prior a test the rats were fasted, and were anaesthetised in the morning using diethyl ether. 1 ml of Intralipid (200 mg/ml) with and without inhibitor was fed to the rats by means of a syringe through the mouth and ending in the stomach. Blood samples were taken at time 0, prior to the test start, and then after 30, 60, 120 and 180 minutes after feeding with Intralipid. After centrifugation, serum was separated and stored at −20° C. for analysis. Analyses of free fatty acids, triglycerides and total cholesterol were made. The test has been repeated, also using different dosages of the inhibitors tested.

Pancreatic lipase = Pancreatic lipase activity and protein expression in pancreas after 5 days of treatment; type: in vivo, rat; details: pancreas of rats given 50 μl for 5 days by gastric gavage
Experimental: At the end of experiment, rats were killed and the pancreas collected for assay of lipase activity and protein expression. Lipase activity was determined with pH stat titration (Mettle Components DK 10, DK 11, DV11) using tributyrin dispersed in bile salt as substrate (Borgström & Erlanson). Lipase expression was analysed by western blot.
Pancreas was homogenized in 0.5% digitonin buffer containing 10 mM sodium phosphate (pH6.0) and 1 mini complete tablet on ice. After centrifuge at 14000 g, 4° C. for 10 min, the supernatant was collected and heating at 65° C., 15 min for inactivate endogenous lipase. The protein amount was measured by BCA method. Equal amount (50 μg) protein was load on 10% SDS-polyacrylamide gels, transferred to the nitrocellulose membranes and then incubated with anti-lipase antibody in the dilution 1:1000 at 4° C. overnight. Pancreatic lipase protein was detected using a horseradish peroxidase-conjugated donkey anti-rabbit antibody (1:8000) for 60 min at room temperature followed with an enhanced chemiluminescence (Pierce).

**Q.** Which “Dose at which the maximum inhibition of lipase activity was seen” value (lipase; Intralipid as substrate) does the source give for CCCCCCCCCCCCOCCN(C)C [dimethylaminoethyl dodecyl ether] here?
**A.** Its value is 80 µmol.

**Q.** And the “Dose at which the maximum inhibition of lipase activity was seen” value (lipase; tributyrin as substrate)?
**A.** Its value is 40 µmol.

**Q.** And the “Inhibition of lipase activity in vitro” value (lipase)?
**A.** Its value is “completely inhibited lipase activity”.

**Q.** And the “Inhibition of lipase activity in vitro” value (lipase; listed as Dimethylaminoethyl dodecyl ether)?
**A.** The value was “inhibited lipase activity in a dose-depended manner”.

**Q.** And the “Serum PYY 3-36 level vs controls” value ([1]; fasted rats, 50 μl for 5 days)?
**A.** The value was “no difference”.

**Q.** And the “Serum ghrelin level vs controls” value ([1]; fasted rats, 50 μl for 5 days)?
**A.** Its value is “markedly increased”.

**Q.** And the “Serum leptin level vs controls” value ([1]; fasted rats, 50 μl for 5 days)?
**A.** The value was “markedly decreased; also recorded: significantly decreased”.

**Q.** What about the “Serum PYY3-36 level” value ([1]; treated rats, 5 days, control rats 0.86±0.24) of the same molecule?
**A.** Its value is 0.85 ± 0.26 ng/mL.

**Q.** And the Triglycerides ([2]; rat blood serum, 0 min (prior to Intralipid feeding))?
**A.** Its Triglycerides is 103 mg/dL.

**Q.** And the Free fatty acids ([2]; rat blood serum, 0 min (prior to Intralipid feeding), listed as Compound C12)?
**A.** Its Free fatty acids is 0.56 mmol and 0.57 mmol.

**Q.** What about the Triglycerides ([2]; rat blood serum, 30 min after 1 ml Intralipid with inhibitor) of the same molecule?
**A.** The Triglycerides was 95 mg/dL.

**Q.** And the Free fatty acids ([2]; rat blood serum, 30 min after 1 ml Intralipid with inhibitor, listed as Compound C12)?
**A.** Its Free fatty acids is 0.63 mmol and 0.67 mmol.

**Q.** And the Triglycerides ([2]; rat blood serum, 60 min after 1 ml Intralipid with inhibitor)?
**A.** The Triglycerides was 98 mg/dL.

**Q.** What about the Free fatty acids ([2]; rat blood serum, 60 min after 1 ml Intralipid with inhibitor, listed as Compound C12) of the same molecule?
**A.** The Free fatty acids was 0.70 mmol and 0.72 mmol.

**Q.** And the Triglycerides ([2]; rat blood serum, 120 min after 1 ml Intralipid with inhibitor)?
**A.** The Triglycerides was 95 mg/dL.

**Q.** What about the Free fatty acids ([2]; rat blood serum, 120 min after 1 ml Intralipid with inhibitor, listed as Compound C12) of the same molecule?
**A.** Its Free fatty acids is 0.60 mmol and 0.72 mmol.

**Q.** And the Triglycerides ([2]; rat blood serum, 180 min after 1 ml Intralipid with inhibitor)?
**A.** Its Triglycerides is 77 mg/dL.

**Q.** What about the Free fatty acids ([2]; rat blood serum, 180 min after 1 ml Intralipid with inhibitor, listed as Compound C12) of the same molecule?
**A.** The Free fatty acids was 0.62 mmol and 0.74 mmol.

**Q.** What about the “Free fatty acids (% of control)” value ([2]; rat, dose of active compound 10 μg) of the same molecule?
**A.** The value was 83.7 % of control.

**Q.** And the Free fatty acids ([2]; rat, dose of active compound 10 μg, dose 0: 1.45)?
**A.** The Free fatty acids was 1.25 mM.

**Q.** And the “Free fatty acids (% of control)” value ([2]; rat, dose of active compound 50 μg)?
**A.** Its value is 56.1 % of control.

**Q.** And the Free fatty acids ([2]; rat, dose of active compound 50 μg, dose 0: 1.45)?
**A.** The Free fatty acids was 0.83 mM.

**Q.** And the “Free fatty acids (% of control)” value ([2]; rat, dose of active compound 100 μg)?
**A.** The value was 57.4 % of control.

**Q.** And the Free fatty acids ([2]; rat, dose of active compound 100 μg, dose 0: 1.45)?
**A.** Its Free fatty acids is 0.85 mM.

**Q.** And the “Free fatty acids (% of control)” value ([2]; rat, dose of active compound 200 μg)?
**A.** The value was 74.3 % of control.

**Q.** And the Free fatty acids ([2]; rat, dose of active compound 200 μg, dose 0: 1.45)?
**A.** The Free fatty acids was 1.1 mM.

**Q.** And the “Pancreatic lipase activity vs controls” value (Pancreatic lipase)?
**A.** Its value is “not changed”.

**Q.** What about the “Pancreatic lipase protein expression vs controls (western blot)” value (Pancreatic lipase) of the same molecule?
**A.** Its value is “slightly reduced; also recorded: reduced”.
